Experimental data reported in US8415469B2, “Compounds and methods for kinase modulation, and indications therefor” (Plexxikon Inc., priority 2005, dated 2013).

Tests used:
Format in all cases: biochemical
[1] = biological target: T1, B-Raf V600E (Homo sapiens, UniProt P15056, V600E); test: AlphaScreen kinase assay, B-Raf V600E; details: read-out: IC50, activity toward kinase B-Raf V600E
T1 construct: P4254. pFastBacBD-CDC37 BRAF D437-K722-X, V600E; His6 with pFastBac HT leader (TEV site) (N); made in house; host or cells: Sf9 (baculovirus; chaperone CDC37 co-expressed)

[2] = biological target: T2, EphB2 (Homo sapiens, UniProt P29323); test: Z'-Lyte FRET kinase assay (Invitrogen), EphB2; details: read-out: IC50, activity toward kinase EphB2
T2 construct: purchased Invitrogen (assay run by Invitrogen)
T2 sequence (P29323 19-1055): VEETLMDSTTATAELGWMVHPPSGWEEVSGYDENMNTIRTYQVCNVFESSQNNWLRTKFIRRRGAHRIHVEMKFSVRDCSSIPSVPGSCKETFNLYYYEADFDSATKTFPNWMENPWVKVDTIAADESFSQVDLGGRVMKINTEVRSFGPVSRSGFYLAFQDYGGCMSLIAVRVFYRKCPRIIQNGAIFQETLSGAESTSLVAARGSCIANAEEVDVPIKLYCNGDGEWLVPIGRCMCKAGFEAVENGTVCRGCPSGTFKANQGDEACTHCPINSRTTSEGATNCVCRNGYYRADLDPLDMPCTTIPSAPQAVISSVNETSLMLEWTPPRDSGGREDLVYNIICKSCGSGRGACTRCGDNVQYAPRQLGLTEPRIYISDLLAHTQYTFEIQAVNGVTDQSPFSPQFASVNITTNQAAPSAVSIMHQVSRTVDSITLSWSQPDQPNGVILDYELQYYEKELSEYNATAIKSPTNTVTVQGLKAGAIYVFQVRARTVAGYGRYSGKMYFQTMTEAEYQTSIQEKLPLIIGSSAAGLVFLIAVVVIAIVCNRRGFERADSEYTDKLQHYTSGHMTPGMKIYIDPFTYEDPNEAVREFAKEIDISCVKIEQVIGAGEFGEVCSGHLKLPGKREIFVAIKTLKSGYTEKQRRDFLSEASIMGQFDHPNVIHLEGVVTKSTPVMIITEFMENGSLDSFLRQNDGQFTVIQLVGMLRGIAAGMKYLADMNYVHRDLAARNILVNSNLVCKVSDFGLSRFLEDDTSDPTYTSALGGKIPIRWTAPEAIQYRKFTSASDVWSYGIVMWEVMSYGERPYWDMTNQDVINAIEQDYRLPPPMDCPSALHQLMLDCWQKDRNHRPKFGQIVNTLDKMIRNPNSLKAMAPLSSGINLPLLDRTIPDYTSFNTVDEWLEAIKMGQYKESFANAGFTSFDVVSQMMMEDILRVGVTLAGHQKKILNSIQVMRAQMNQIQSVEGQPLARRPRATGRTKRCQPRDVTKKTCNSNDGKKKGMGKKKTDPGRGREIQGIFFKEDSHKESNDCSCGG
In short: (§1)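 Inhibition was inferred from protease cleavage of non-phosphorylated peptide, measured as a coumarin/fluorescein ratio. Kinase reactions used 10 μM ATP for 1 h at room temperature.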

[3] = biological target: T3, Kit (Homo sapiens, UniProt P10721); test: AlphaScreen kinase assay, Kit; details: read-out: IC50, activity toward kinase Kit
T3 construct: P1332.N6 BI PTP KIT M552-K948-X COD; His6 (N); made in house; host or cells: E. coli (PTP1B co-expressed)

[4] = biological target: T4, Yes (Homo sapiens, UniProt P07947); test: Z'-Lyte FRET kinase assay (Invitrogen), Yes; details: read-out: IC50, activity toward kinase Yes
T4 construct: purchased Invitrogen (Carlsbad, Calif.), screening service
In short: as §1

Measured: IC50

T3 sequence (P10721 with tags, fused parts or gaps): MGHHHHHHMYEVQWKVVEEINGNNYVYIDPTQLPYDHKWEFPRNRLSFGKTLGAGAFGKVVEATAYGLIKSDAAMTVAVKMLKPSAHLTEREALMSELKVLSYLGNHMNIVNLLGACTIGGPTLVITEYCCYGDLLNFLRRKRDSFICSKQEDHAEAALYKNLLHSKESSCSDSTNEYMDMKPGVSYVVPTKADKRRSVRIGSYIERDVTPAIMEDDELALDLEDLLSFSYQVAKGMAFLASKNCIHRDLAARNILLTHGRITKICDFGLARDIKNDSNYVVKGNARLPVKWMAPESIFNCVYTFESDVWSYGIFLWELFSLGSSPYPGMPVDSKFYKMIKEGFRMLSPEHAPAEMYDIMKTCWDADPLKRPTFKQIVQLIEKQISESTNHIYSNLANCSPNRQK
T1 sequence (P15056 with tags, fused parts or gaps V600E): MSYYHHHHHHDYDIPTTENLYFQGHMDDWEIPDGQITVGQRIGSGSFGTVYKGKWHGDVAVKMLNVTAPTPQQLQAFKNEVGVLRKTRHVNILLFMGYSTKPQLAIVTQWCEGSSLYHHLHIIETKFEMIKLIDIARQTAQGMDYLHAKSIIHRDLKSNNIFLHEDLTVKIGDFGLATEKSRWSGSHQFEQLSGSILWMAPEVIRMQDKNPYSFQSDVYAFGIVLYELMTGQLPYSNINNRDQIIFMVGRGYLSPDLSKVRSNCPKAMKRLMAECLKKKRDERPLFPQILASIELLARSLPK
T4 sequence (P07947 whole entry): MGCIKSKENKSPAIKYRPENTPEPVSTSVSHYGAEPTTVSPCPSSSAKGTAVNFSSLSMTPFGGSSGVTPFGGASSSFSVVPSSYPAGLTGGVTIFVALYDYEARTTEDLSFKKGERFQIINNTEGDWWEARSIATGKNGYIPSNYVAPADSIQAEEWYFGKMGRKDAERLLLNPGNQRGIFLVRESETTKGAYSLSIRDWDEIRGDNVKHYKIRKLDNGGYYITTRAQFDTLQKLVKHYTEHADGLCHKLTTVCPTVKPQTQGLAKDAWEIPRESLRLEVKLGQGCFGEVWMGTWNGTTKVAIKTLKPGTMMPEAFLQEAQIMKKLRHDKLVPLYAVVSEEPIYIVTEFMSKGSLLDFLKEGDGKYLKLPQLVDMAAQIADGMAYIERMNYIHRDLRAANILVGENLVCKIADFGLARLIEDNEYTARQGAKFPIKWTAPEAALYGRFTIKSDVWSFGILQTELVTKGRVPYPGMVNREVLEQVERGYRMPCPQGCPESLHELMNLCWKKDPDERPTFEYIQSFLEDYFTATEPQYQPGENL

CCCS(=O)(=O)Nc1ccc(F)c(C(=O)c2c[nH]c3ncccc23)c1F [Compound P-0007, Propane-1-sulfonic acid [2,4-difluoro-3-(1H-pyrrolo[2,3-b]pyridine-3-carbonyl)-phenyl]-amide]
≤ 10 µM: all assays above

Oc1ccc(F)c(C(O)c2c[nH]c3ncc(-c4cccnc4)cc23)c1F (stereo not shown) [Compound P-0009, 2,4-difluoro-3-[hydroxy-(5-pyridin-3-yl-1H-pyrrolo[2,3-b]pyridin-3-yl)-methyl]-phenol]
≤ 10 µM: [1] | [2] | [3]

O=C(O)/C=C/c1cccc(-c2cnc3[nH]cc(C(=O)c4cc(O)ccc4F)c3c2)c1 [Compound P-0010]
≤ 10 µM: [1] | [2] | [4]

O=C(c1cccc(O)c1)c1c[nH]c2ncccc12 [Compound P-0011]
≤ 10 µM: all assays above

O=C(c1cccc(O)c1)c1c[nH]c2nccc(Cl)c12 [Compound P-0012]
≤ 10 µM: all assays above

NC(=O)c1ccc(-c2ccnc3[nH]cc(C(=O)c4cc(F)ccc4F)c23)cc1 [Compound P-0013]
≤ 10 µM: all assays above

NC(=O)c1ccc(-c2ccnc3[nH]cc(C(=O)c4ccccc4F)c23)cc1 [Compound P-0014]
≤ 10 µM: [1] | [2] | [4]

COc1ccc(C(=O)c2c[nH]c3ncc(-c4cccc(/C=C/C(=O)O)c4)cc23)c(Cl)c1 [Compound P-0015]
≤ 10 µM: [1] | [2] | [4]

Cc1c(O)cccc1C(=O)c1c[nH]c2ncc(-c3ccccc3)cc12 [Compound P-0016, (3-Hydroxy-2-methyl-phenyl)-(5-phenyl-1H-pyrrolo[2,3b]pyridin-3-yl)-methanone]
≤ 10 µM: all assays above

Cc1ccccc1C(=O)c1c[nH]c2nccc(-c3ccc(C(N)=O)cc3)c12 [Compound P-0017]
≤ 10 µM: all assays above

CS(=O)(=O)c1cccc(-c2cnc3[nH]cc(C(O)c4c(F)ccc(F)c4F)c3c2)c1 (stereo not shown) [Compound P-0020]
≤ 10 µM: [2] | [3] | [4]

Nc1cccc(-c2ccnc3[nH]cc(C(=O)c4ccccc4F)c23)c1 [Compound P-0022]
≤ 10 µM: [1] | [2] | [4]

Cc1ccc(F)cc1C(=O)c1c[nH]c2ncc(-c3cccc(NS(C)(=O)=O)c3)cc12 [Compound P-0028]
≤ 10 µM: all assays above

Nc1ccnc2[nH]cc(C(=O)c3ccccc3)c12 [Compound P-0029]
≤ 10 µM: [2] | [3] | [4]

O=C(c1cc(O)ccc1F)c1c[nH]c2ncc(-c3cccs3)cc12 [Compound P-0032]
≤ 10 µM: [1] | [2] | [3]

O=C(O)/C=C/c1cccc(-c2cnc3[nH]cc(C(=O)c4ccccc4F)c3c2)c1 [Compound P-0033]
≤ 10 µM: all assays above

Cc1ccc(F)cc1C(=O)c1c[nH]c2ncc(-c3cccc(N)c3)cc12 [Compound P-0040]
≤ 10 µM: all assays above

Cc1ccccc1C(=O)c1c[nH]c2nccc(-c3cccc(N)c3)c12 [Compound P-0044]
≤ 10 µM: [1] | [2] | [4]

O=C(c1cc(O)ccc1F)c1c[nH]c2ncc(-c3ccccc3)cc12 [Compound P-0045]
≤ 10 µM: [1] | [2] | [4]

Cc1ccc(F)cc1C(=O)c1c[nH]c2ncc(-c3ccc(C(N)=O)cc3)cc12 [Compound P-0050]
≤ 10 µM: all assays above

Oc1cccc(Cc2c[nH]c3ncc(-c4cccs4)cc23)c1F [Compound P-0052, 2-Fluoro-3-(5-thiophen-2-yl-1H-pyrrolo[2,3-b]pyridin-3-ylmethyl)-phenol]
≤ 10 µM: [1] | [2] | [4]

Oc1cccc(Cc2c[nH]c3ncc(-c4ccsc4)cc23)c1 [Compound P-0056]
≤ 10 µM: all assays above

O=C(c1cc(O)ccc1F)c1c[nH]c2ncc(Br)cc12 [Compound P-0068, (5-Bromo-1H-pyrrolo[2,3-b]pyridin-3-yl)-(2-fluoro-5-hydroxy-phenyl)-methanone]
≤ 10 µM: [1] | [2] | [4]

CC(=O)Nc1cccc(-c2ccnc3[nH]cc(C(=O)c4ccccc4F)c23)c1 [Compound P-0070]
≤ 10 µM: [1] | [2] | [4]

Cc1ccc(S(=O)(=O)NCc2c[nH]c3nccc(-c4cccc(C#N)c4)c23)cc1 [Compound P-0072]
≤ 10 µM: all assays above

Oc1ccc(F)c(Cc2c[nH]c3ncc(-c4cccnc4)cc23)c1F [Compound P-0078, 2,4-difluoro-3-(5-pyridin-3-yl-1H-pyrrolo[2,3-b]pyridin-3-ylmethyl)-phenol]
≤ 10 µM: [1] | [2] | [3]

CCCS(=O)(=O)Nc1ccc(F)c(C(=O)c2c[nH]c3ncc(-c4cccnc4)cc23)c1F [Compound P-0088, Propane-1-sulfonic acid [2,4-difluoro-3-(5-pyridin-3-yl-1H-pyrrolo[2,3-b]pyridine-3-carbonyl)-phenyl]-amide]
≤ 10 µM: all assays above

Cc1ccccc1C(=O)c1c[nH]c2nccc(-c3cccc(NS(C)(=O)=O)c3)c12 [Compound P-0109]
≤ 10 µM: [1] | [2] | [4]

Cc1ccc(F)cc1C(=O)c1c[nH]c2nccc(-c3cccc(NS(C)(=O)=O)c3)c12 [Compound P-0124]
≤ 10 µM: [1] | [2] | [4]
